The values below come from publication PMC9024597, “The Biological Fate of a Novel Anticancer Drug Candidate TNBG-5602: Metabolic Profile, Interaction with CYP450, and Pharmacokinetics in Rats” (Molecules, 2022).

Series [1] can be described thus: In vivo metabolites in rat urine and feces by UPLC-Q-TOF-MS/MS. As to conditions: rats; for metabolite detected in feces: TNBG-5602 i.v. 4.8 mg kg^−1, feces 0-24 h. How it is done:
An Exion LC^TM AC UPLC system (AB Sciex, Framingham, MA, USA) coupled with an […] Q-TOF tandem mass spectrometer was used for qualitative analysis in this study. Chromatographic separation was carried out on an ACQUITY UPLC HSS T3 column (2.1 × 75 mm, 1.8 μm, Waters, Wexford, Ireland). […] The column temperature was set to 35 °C. The injection volume was 5 μL. A full scan was performed over m/z 100-1000 for precursor ions in positive mode with a spray voltage of 5.5 kV, collision energy (CE) of 35 V, CE spread of 15 V, and accumulation time of 0.05 s. The Q-TOF scan for product ions was performed over m/z 100-1200 with CE 10 V and an accumulation time of 0.1 s. For the structural identification of metabolites, the UPLC-Q-TOF-MS/MS data were acquired and processed via SCIEX OS (Version 1.7, AB Sciex, Redwood City, CA, USA). The raw data files were imported into SCIEX OS 2.1 to search for and identify the metabolites of TNBG-5602. Identification of the chemical structure included two steps. The first step was automatic prediction, while the second step was manual validation. In Step 1, the candidate metabolites were predicted by the software based on the typical metabolic reactions of the templates. In Step 2, an ion chromatogram was extracted to screen candidate metabolites with mass tolerance within 5 ppm, using blank samples for the subtraction of the background. Then, the MS/MS fragment ions were extracted for the structural confirmation of candidate metabolites. […] The urine and feces samples were collected before administration (0 h) and at 8, 12, and 24 h after intravenous injection. The urine samples were vortex mixed with acetonitrile at a ratio of 1:3 (v/v) for 15 min. The mixture was then centrifuged at 15,000 rpm for 10 min, and the supernatant was dried using a gentle flow of nitrogen. The residue was dissolved in acetonitrile and vortex mixed again. The supernatant was dried again and re-dissolved in 0.1% aqueous formic acid: acetonitrile (50:50, v/v). The treated sample solutions were stored at -20 °C until analysis. A 5 μL aliquot of the thawed sample solution was injected into the UPLC-Q-TOF-MS/MS device to analyze the metabolites. The feces samples were homogenized with pure water at a ratio of 1:1 (w/w). The homogenate was vortex mixed with acetonitrile at a ratio of 1:3 (w/v) for 15 min. The mixture was then centrifuged at 15,000 rpm for 10 min, and the supernatant was dried using a gentle flow of nitrogen. The residue was dissolved with acetonitrile and vortex mixed again. The supernatant was dried again and re-dissolved in 0.1% aqueous formic acid: acetonitrile (50:50, v/v). The treated sample solutions were stored at -20 °C until analysis. A 5-μL aliquot of the thawed sample solution was injected into the UPLC-Q-TOF-MS/MS device to analyze the metabolites.

The target of a further series is T1, CYP2C9 (Homo sapiens, UniProt P11712).
T1 construct: purchased IPHASE
Briefly: Metabolite formation on incubation with recombinant CYP. The series is classed as in vitro ADME. Conditions: TNBG-5602 5 μg mL^−1, recombinant CYP 0.025 μM, 37 °C, 60 min. How it is done:
(§1) An Exion LC^TM AC UPLC system (AB Sciex, Framingham, MA, USA) coupled with an […] Q-TOF tandem mass spectrometer was used for qualitative analysis in this study. Chromatographic separation was carried out on an ACQUITY UPLC HSS T3 column (2.1 × 75 mm, 1.8 μm, Waters, Wexford, Ireland). […] The column temperature was set to 35 °C. The injection volume was 5 μL. A full scan was performed over m/z 100-1000 for precursor ions in positive mode with a spray voltage of 5.5 kV, collision energy (CE) of 35 V, CE spread of 15 V, and accumulation time of 0.05 s. The Q-TOF scan for product ions was performed over m/z 100-1200 with CE 10 V and an accumulation time of 0.1 s. For the structural identification of metabolites, the UPLC-Q-TOF-MS/MS data were acquired and processed via SCIEX OS (Version 1.7, AB Sciex, Redwood City, CA, USA). The raw data files were imported into SCIEX OS 2.1 to search for and identify the metabolites of TNBG-5602. Identification of the chemical structure included two steps. The first step was automatic prediction, while the second step was manual validation. In Step 1, the candidate metabolites were predicted by the software based on the typical metabolic reactions of the templates. In Step 2, an ion chromatogram was extracted to screen candidate metabolites with mass tolerance within 5 ppm, using blank samples for the subtraction of the background. Then, the MS/MS fragment ions were extracted for the structural confirmation of candidate metabolites. The stock solution of TNBG-5602 ([…]) was prepared using 0.1% aqueous formic acid. Then, the stock solution was diluted with PBS buffer to make the working solution of TNBG-5602 (1 mg mL^-1). The working solution of TNBG-5602 was incubated with CYP2D6, CYP3A4, CYP2C9, and CYP4V2 recombinant cytochrome enzymes, respectively. The total incubation volume for each reaction was 200 μL, containing TNBG-5602 (final concentration: 5 μg mL^-1), cytochrome P450s (final concentration: 0.025 μM), 3.3 mM MgCl2, 1.3 mM NADPH, 3.3 mM glucose-6-phosphate, 0.4 U mL^-1 glucose-6-phosphate dehydrogenase, and 0.05 mM sodium citrate. The cytochrome P450s were thawed on an ice bath and pre-incubated at 37 °C for 5 min. The mixtures were pre-incubated at 37 °C for 5 min before adding NADPH to initiate the reaction. NADPH was pre-incubated at 37 °C for 5 min and then added into the incubation system to initiate the reaction. The incubation periods were 60 min, and the reactions were quenched by adding 200 μL of iced acetonitrile. The samples were centrifuged (12,000× g rpm, 4 °C) for 10 min, and the supernatant was analyzed via the qualitative LC-MS/MS method. Blank samples in the absence of TNBG-5602 were incubated and followed by the same treatment.

The next series deals with T2, CYP2D6 (Homo sapiens, UniProt P10635).
T2 construct: purchased IPHASE
The description is as above. The series is classed as in vitro ADME. Conditions: TNBG-5602 5 μg mL^−1, recombinant CYP 0.025 μM, 37 °C, 60 min. Here is the method: as §1

The target of a further series is T3, CYP3A4 (Homo sapiens, UniProt P08684).
T3 construct: purchased IPHASE
The description is as above. The series is classed as in vitro ADME. Conditions: TNBG-5602 5 μg mL^−1, recombinant CYP 0.025 μM, 37 °C, 60 min. How it is done: as §1

A further series deals with T4, CYP4V2 (Homo sapiens, UniProt Q6ZWL3).
T4 construct: purchased Abnova P01
T4 sequence (Q6ZWL3 1-525): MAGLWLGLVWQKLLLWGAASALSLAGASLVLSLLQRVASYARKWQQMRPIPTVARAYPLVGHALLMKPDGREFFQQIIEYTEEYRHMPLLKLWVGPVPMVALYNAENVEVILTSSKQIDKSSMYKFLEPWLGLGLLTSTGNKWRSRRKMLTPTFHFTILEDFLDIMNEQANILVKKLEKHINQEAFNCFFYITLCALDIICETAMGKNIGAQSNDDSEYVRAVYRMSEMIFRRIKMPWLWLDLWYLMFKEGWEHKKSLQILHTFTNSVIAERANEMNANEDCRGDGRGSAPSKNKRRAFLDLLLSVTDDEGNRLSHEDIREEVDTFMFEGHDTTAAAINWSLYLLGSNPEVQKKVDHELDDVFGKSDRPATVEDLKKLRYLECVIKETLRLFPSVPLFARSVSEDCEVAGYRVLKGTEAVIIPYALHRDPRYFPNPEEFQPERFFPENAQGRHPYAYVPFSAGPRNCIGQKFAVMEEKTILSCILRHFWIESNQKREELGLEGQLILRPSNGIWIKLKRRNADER
The series is described as above. The series is classed as in vitro ADME. As to conditions: TNBG-5602 5 μg mL^−1, recombinant CYP 0.025 μM, 37 °C, 60 min. How it is done: as §1

T1 sequence (P11712 whole entry): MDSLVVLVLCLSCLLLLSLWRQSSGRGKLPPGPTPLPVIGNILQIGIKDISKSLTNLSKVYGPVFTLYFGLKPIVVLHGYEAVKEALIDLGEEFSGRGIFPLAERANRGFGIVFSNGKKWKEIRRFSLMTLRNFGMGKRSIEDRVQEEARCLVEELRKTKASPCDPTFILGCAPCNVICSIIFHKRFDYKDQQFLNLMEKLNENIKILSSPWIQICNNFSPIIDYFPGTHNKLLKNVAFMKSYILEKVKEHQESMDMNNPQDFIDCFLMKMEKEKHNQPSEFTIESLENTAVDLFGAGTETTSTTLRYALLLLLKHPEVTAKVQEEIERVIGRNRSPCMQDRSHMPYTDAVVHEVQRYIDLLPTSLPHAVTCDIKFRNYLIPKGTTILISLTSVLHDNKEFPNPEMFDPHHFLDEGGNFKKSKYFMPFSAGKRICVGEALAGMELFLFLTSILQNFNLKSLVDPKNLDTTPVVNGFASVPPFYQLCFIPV
T3 sequence (P08684 whole entry): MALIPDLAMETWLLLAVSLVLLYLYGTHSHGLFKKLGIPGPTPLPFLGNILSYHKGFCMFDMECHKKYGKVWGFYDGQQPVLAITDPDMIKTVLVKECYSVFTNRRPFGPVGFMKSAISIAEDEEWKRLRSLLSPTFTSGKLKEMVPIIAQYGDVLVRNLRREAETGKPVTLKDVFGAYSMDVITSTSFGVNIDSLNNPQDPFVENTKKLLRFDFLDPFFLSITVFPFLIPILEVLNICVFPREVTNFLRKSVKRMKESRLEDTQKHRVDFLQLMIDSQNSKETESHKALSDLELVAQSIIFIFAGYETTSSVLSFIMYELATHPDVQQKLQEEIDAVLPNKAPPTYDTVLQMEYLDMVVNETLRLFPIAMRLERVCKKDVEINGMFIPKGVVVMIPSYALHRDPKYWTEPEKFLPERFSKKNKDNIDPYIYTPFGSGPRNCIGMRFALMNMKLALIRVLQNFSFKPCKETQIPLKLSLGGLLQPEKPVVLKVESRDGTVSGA
T2 sequence (P10635 whole entry): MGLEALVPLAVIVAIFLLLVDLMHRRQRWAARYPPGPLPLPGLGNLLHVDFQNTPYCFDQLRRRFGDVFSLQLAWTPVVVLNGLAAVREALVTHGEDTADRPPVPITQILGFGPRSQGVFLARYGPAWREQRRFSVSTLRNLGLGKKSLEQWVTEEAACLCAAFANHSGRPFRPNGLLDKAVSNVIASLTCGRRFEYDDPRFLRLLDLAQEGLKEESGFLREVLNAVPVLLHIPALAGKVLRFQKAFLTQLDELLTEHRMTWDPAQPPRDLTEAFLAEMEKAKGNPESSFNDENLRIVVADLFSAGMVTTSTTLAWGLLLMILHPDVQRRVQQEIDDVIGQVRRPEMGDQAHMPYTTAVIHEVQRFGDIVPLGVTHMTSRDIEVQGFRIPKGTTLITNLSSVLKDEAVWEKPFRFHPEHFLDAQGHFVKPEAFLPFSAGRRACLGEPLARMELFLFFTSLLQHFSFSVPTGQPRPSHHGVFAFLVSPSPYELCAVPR

For the compound `CN1CCN2CC3c4ccccc4CCN3C3=Nc4ccccc4NC312` (centres unmarked) [M6], in series [1] (TNBG-5602 i.v.), the “rank of metabolite in the feces (major/minor)” value (shortened to “rank … (major/minor)”) was “minor”. In addition, in series [1], the “metabolite detected in feces” value is reported as “×”.

`CNCCN1CC2c3ccccc3CCN2c2nc3ccccc3nc21` (centres unmarked) [M5]: in series [1] (TNBG-5602 i.v.), the “rank … (major/minor)” value was “major” and the “rank of metabolite in the urine” value was “main”. For the same compound, in series [1], the “metabolite detected in feces” value is “present and ×”. Moreover, the “metabolite detected in urine” value in series [1] (TNBG-5602 i.v. 4.8 mg kg^−1, urine 0-24 h) is “present and ×”. The “metabolite detected after incubation with CYP2C9” value on CYP2C9 is “found and ×”. Also, the “metabolite detected after incubation with CYP2D6” value on CYP2D6 was “observed and ×”. Moreover, at CYP3A4, the “metabolite detected after incubation with CYP3A4” value is “obtained and ×”. Further, at CYP4V2, the “metabolite detected after incubation with CYP4V2” value is “found and ×”.

As to `c1ccc2c(c1)CCN1c3nc4ccccc4nc3N(CCN3COC3)CC21` (centres unmarked) [M7], the “rank … (major/minor)” value in series [1] (TNBG-5602 i.v.) is listed as “minor”. Besides, in series [1], the “metabolite detected in feces” value is recorded as “×”.

In the case of `CN(C=O)CCN1CC2c3ccccc3CCN2c2nc3ccccc3nc21` (centres unmarked) [M8], in series [1] (TNBG-5602 i.v.), the “rank … (major/minor)” value is “minor”. For the same compound, the “metabolite detected in feces” value in series [1] is given as “×”.
